Experimental findings from PubChem BioAssay (NCI) are described below.

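Interpolation was linear, between the two tested concentrations surrounding the appropriate level; five concentrations were tested over 48 hours in 96-well plates. GI50: concentration for 50% inhibition of growth. TGI: total growth inhibition.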

In the first assay the test system is BT-549 breast. In words: growth of human tumour cells (NCI), 48 h.
On to `COc1cc(C2c3cc4c(cc3C(O)C(CO)C2CO)OCO4)cc(OC)c1OC` (stereo not drawn), for which the GI50 was 1.92 µM and the TGI was greater than 54.9 µM.
Turning to `CCCNC(=S)/N=C/c1c(O)c2ccccc2[nH]c1=O`, the TGI is greater than 100 µM.
For the compound `COC1C(O)=C2C(=O)O/C(C)=C/C=C/C=C/C=C\CC(c3ccccc3)NC(=O)\C=C/C=C\C=C\C=C\[C@@]2(C)[C@@H]1O` (stereo partly drawn), the TGI was found to be 0.0201 µM.
`COC12C=C/C(=C(/C(=O)OCc3ccncc3)C(=O)CCCCCCCCC3(OC)C=C/C(=C(/C(=O)OCc4ccncc4)C(=O)CCCCCCCC1)O3)O2`: the GI50 is 0.638 µM and the TGI amounted to 3.21 µM.
With `CC(C)=CCc1cc(O)cc2c1OC(C=C(C)C)C1=C2C(=O)C2=C(NCCS2(=O)=O)C1=O` (stereo not drawn), the GI50 was 2.87 µM and the TGI amounted to 5.23 µM.
`NS(=O)(=O)c1ccc(N(/C=C/C(=O)C(F)(F)F)CC(=O)c2ccc(Cl)cc2)cc1`: the GI50 was 44.5 µM and the TGI was greater than 100 µM.
For `C1CSCCSCCS1`, the TGI is greater than 100 µM.
In the case of `N#C/C=C(\c1ccc([N+](=O)[O-])cc1)n1nnc2cc(Cl)c(Cl)cc21`, the GI50 was 1.77 µM and the TGI was determined as 3.77 µM.
For `CCN(CC)CCOc1ccc(/C=C2\CC3C4CC=C5C[C@@H](O)CC[C@]5(C)C4CC[C@]3(C)C2=O)cc1OC` (stereo partly drawn), in that order: 26 µM and greater than 52.6 µM.
On the same counts, the results for `CC1(C)OCCn2c1nc1c(N3CCOCC3)nc(-c3cnc(N)nc3)nc12` are 0.183 µM and 2.91 µM.
Compound `CC1=CC(=O)[C@@H](O)[C@]2(C)[C@H]3[C@@]4(O)OC[C@]35[C@H]([C@@H](C)[C@H]4O)[C@@H](O)C(=O)O[C@@H]5C[C@@H]12` returned a TGI of 5.17 µM.
As to `COc1cc(-c2nn(-c3cccc(NC(=O)Nc4ccc(Cl)c(Cl)c4)c3)cc2-c2ccncc2)ccc1Cl`, the GI50 was 1.68 µM and the TGI came to 27.6 µM.
As for `COc1ccc2[nH]cc(-c3nc(-c4c[nH]c5ncccc45)cs3)c2c1`, the GI50 is 5.35 µM and the TGI is greater than 100 µM.
On the same counts, the results for `CCOC(=O)C(=Cc1cccc(Cl)c1)C(=O)OCC` are 2.06 µM and 5.07 µM.
On to `O=c1cc(-c2ccccc2)[nH]c2c(S)cccc12`, for which the TGI was greater than 100 µM.

Another assay concerns UACC-257 melanoma. In words: growth of human tumour cells (NCI), 48 h.
Take `Nc1nccc2c1ccn2-c1ccc(NC(=O)c2ccc(N3CCOCC3)c(C(F)(F)F)c2)cc1`: the GI50 was 2.15 µM and the TGI was 8.61 µM.
In turn, `Cc1[nH]c2ccccc2c1-c1cc(-c2cc(-c3c(C)[nH]c4ccccc34)on2)no1` gave a TGI greater than 100 µM.
In the case of `Cn1cnc([N+](=O)[O-])c1S(=O)(=O)Oc1ccccc1`, the GI50 is 3.84 µM and the TGI stood at 16.3 µM.
On the same counts, the results for `COc1cc(C2c3cc4c(cc3C(O)C(CO)C2CO)OCO4)cc(OC)c1OC` (stereo not drawn) are 0.67 µM and greater than 100 µM.
Consider `CCCNC(=S)/N=C/c1c(O)c2ccccc2[nH]c1=O`, for which the TGI is greater than 100 µM.
`COC1C(O)=C2C(=O)O/C(C)=C/C=C/C=C/C=C\CC(c3ccccc3)NC(=O)\C=C/C=C\C=C\C=C\[C@@]2(C)[C@@H]1O` (stereo partly drawn) showed a TGI of 0.165 µM.
In the case of `COC12C=C/C(=C(/C(=O)OCc3ccncc3)C(=O)CCCCCCCCC3(OC)C=C/C(=C(/C(=O)OCc4ccncc4)C(=O)CCCCCCCC1)O3)O2`, the GI50 is 1.14 µM and the TGI turned out to be 4.49 µM.
Take `CC(C)=CCc1cc(O)cc2c1OC(C=C(C)C)C1=C2C(=O)C2=C(NCCS2(=O)=O)C1=O` (stereo not drawn): the GI50 is 2.3 µM and the TGI came out at 4.61 µM.
Regarding `NS(=O)(=O)c1ccc(N(/C=C/C(=O)C(F)(F)F)CC(=O)c2ccc(Cl)cc2)cc1`, the GI50 is 50.9 µM and the TGI is greater than 100 µM.
`C1CSCCSCCS1` had a TGI greater than 100 µM.
For `N#C/C=C(\c1ccc([N+](=O)[O-])cc1)n1nnc2cc(Cl)c(Cl)cc21`, the GI50 is 2.06 µM and the TGI was found to be 4.53 µM.
For `CCN(CC)CCOc1ccc(/C=C2\CC3C4CC=C5C[C@@H](O)CC[C@]5(C)C4CC[C@]3(C)C2=O)cc1OC` (stereo partly drawn), in that order: 2.3 µM and 5.5 µM.
On the same counts, the results for `CC1(C)OCCn2c1nc1c(N3CCOCC3)nc(-c3cnc(N)nc3)nc12` are 0.197 µM and 1.97 µM.
With `CC1=CC(=O)[C@@H](O)[C@]2(C)[C@H]3[C@@]4(O)OC[C@]35[C@H]([C@@H](C)[C@H]4O)[C@@H](O)C(=O)O[C@@H]5C[C@@H]12`, the TGI was determined as 1.77 µM.
For the compound `COc1cc(-c2nn(-c3cccc(NC(=O)Nc4ccc(Cl)c(Cl)c4)c3)cc2-c2ccncc2)ccc1Cl`, the GI50 was 1.04 µM and the TGI stood at 3.11 µM.
Take `CCOC(=O)C(=Cc1cccc(Cl)c1)C(=O)OCC`: the GI50 was 5.05 µM and the TGI was 18 µM.
Consider `O=c1cc(-c2ccccc2)[nH]c2c(S)cccc12`, for which the TGI was greater than 100 µM.

Another assay has as its system SK-MEL-28 melanoma. In words: growth of human tumour cells (NCI), 48 h.
On to `Nc1nccc2c1ccn2-c1ccc(NC(=O)c2ccc(N3CCOCC3)c(C(F)(F)F)c2)cc1`, for which the GI50 was 1.17 µM and the TGI was 14.1 µM.
In turn, `Cc1[nH]c2ccccc2c1-c1cc(-c2cc(-c3c(C)[nH]c4ccccc34)on2)no1` had a TGI greater than 100 µM.
Consider `Cn1cnc([N+](=O)[O-])c1S(=O)(=O)Oc1ccccc1`, for which the GI50 was 8.61 µM and the TGI was found to be 32.2 µM.
`COc1cc(C2c3cc4c(cc3C(O)C(CO)C2CO)OCO4)cc(OC)c1OC` (stereo not drawn): the GI50 is 1.6 µM and the TGI is greater than 100 µM.
`COC1C(O)=C2C(=O)O/C(C)=C/C=C/C=C/C=C\CC(c3ccccc3)NC(=O)\C=C/C=C\C=C\C=C\[C@@]2(C)[C@@H]1O` (stereo partly drawn) had a TGI of 0.0518 µM.
For the compound `COC12C=C/C(=C(/C(=O)OCc3ccncc3)C(=O)CCCCCCCCC3(OC)C=C/C(=C(/C(=O)OCc4ccncc4)C(=O)CCCCCCCC1)O3)O2`, the GI50 was 0.29 µM and the TGI amounted to 1.79 µM.
For `CC(C)=CCc1cc(O)cc2c1OC(C=C(C)C)C1=C2C(=O)C2=C(NCCS2(=O)=O)C1=O` (stereo not drawn), in that order: 2.39 µM and 5.13 µM.
Regarding `NS(=O)(=O)c1ccc(N(/C=C/C(=O)C(F)(F)F)CC(=O)c2ccc(Cl)cc2)cc1`, the GI50 is greater than 100 µM and the TGI was greater than 100 µM.
`C1CSCCSCCS1`: the TGI was greater than 100 µM.
